Measured values published in ChEMBL document CHEMBL3397007, “Synthesis, biological activity and molecular modeling of new biphenylic carboxamides as potent and selective CB2 receptor ligands” (Eur J Med Chem, 2015).
Active and inactive are the calls of the source. No cut-off for these calls is given here.

Legend:
[1] = target: T1, Cannabinoid receptor 2 (Homo sapiens, UniProt P34972); assay: Displacement of [3H]CP55,940 from human recombinant CB2 receptor expressed in HEK293 cell membranes after 90 mins
[2] = target: Cannabinoid receptor 1 (Homo sapiens, UniProt P21554); assay: Displacement of [3H]CP55,940 from human recombinant CB1 receptor expressed in HEK293 cell membranes after 90 mins
[3] = system: HEK293; assay: Selectivity index, ratio of Ki for human recombinant CB1 receptor expressed in HEK293 cell membranes to Ki for human recombinant CB2 receptor expressed in HEK293 cell membranes; type: cell-based
[4] = target: T1, Cannabinoid receptor 2; assay: Neutral antagonist activity at human CB2 receptor expressed in CHO membranes assessed as inhibition of inverse agonist SR144528-induced responses by [35S]GTPgammaS binding assay; type: functional, cell membranes
[5] = target: T1, Cannabinoid receptor 2; assay: Neutral antagonist activity at human CB2 receptor expressed in CHO membranes assessed as inhibition of agonist HU-210-induced responses by [35S]GTPgammaS binding assay; type: functional, cell membranes
[6] = target: T1, Cannabinoid receptor 2; assay: Activity at human CB2 receptor expressed in CHO cell membranes by [35S]GTPgammaS binding assay; type: functional
[7] = target: T1, Cannabinoid receptor 2; assay: Competitive antagonist activity at human CB2 receptor expressed in CHO membranes assessed as inhibition of HU-210-induced [35S]GTPgammaS binding by Schild-plot; type: functional, cell membranes; details: read-out: pA2 (converted)
[8] = target: T1, Cannabinoid receptor 2; assay: Antagonist activity at human CB2 receptor expressed in CHO cell membranes assessed as inhibition of HU-210-induced [35S]GTPgammaS binding; type: functional
[9] = target: Cannabinoid receptor 1 (Rattus norvegicus) (UniProt P20272); assay: Agonist activity at CB1 receptor in rat cerebellar membranes at < 10 uM by [35S]GTPgammaS binding assay; type: functional, cell membranes; details: Cerebellum, Membrane
[10] = target: Cannabinoid receptor 1 (Rattus norvegicus) (UniProt P20272); assay: Antagonist activity at CB1 receptor in rat cerebellar membranes assessed as inhibition of HU-210-induced [35S]GTPgammaS binding at 10 uM; type: functional, cell membranes; details: Cerebellum, Membrane
[11] = target: T1, Cannabinoid receptor 2; assay: Agonist activity at human CB2 receptor expressed in CHO cell membranes by [35S]GTPgammaS binding assay; type: functional

Chain of Cannabinoid receptor 1 (P21554 whole entry): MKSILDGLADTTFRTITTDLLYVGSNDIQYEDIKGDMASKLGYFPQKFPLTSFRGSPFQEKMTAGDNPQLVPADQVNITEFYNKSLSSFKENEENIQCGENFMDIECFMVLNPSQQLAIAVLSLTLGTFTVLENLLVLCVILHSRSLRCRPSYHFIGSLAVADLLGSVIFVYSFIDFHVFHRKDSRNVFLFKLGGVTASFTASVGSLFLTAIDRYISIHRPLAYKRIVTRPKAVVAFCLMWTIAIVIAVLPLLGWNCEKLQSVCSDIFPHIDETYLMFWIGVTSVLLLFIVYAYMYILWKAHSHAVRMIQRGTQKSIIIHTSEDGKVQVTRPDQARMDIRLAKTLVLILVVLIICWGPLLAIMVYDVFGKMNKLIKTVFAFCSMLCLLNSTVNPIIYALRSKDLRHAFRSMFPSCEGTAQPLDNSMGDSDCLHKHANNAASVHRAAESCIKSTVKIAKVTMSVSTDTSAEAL
Chain of Cannabinoid receptor 1 (Rattus norvegicus) (P20272 whole entry): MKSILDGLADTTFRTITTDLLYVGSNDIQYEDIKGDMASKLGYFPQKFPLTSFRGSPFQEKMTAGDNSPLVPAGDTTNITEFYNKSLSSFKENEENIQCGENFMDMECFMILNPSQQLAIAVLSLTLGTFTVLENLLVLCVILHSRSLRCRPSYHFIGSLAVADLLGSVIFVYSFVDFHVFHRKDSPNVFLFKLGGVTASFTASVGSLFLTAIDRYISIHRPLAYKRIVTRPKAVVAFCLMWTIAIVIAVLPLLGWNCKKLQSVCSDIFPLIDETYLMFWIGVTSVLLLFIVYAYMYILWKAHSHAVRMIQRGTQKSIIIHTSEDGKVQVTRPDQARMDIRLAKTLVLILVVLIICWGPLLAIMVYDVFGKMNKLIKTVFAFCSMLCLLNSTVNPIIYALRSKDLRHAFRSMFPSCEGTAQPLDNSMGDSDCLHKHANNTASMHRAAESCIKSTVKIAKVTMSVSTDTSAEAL
T1 sequence (P34972 whole entry): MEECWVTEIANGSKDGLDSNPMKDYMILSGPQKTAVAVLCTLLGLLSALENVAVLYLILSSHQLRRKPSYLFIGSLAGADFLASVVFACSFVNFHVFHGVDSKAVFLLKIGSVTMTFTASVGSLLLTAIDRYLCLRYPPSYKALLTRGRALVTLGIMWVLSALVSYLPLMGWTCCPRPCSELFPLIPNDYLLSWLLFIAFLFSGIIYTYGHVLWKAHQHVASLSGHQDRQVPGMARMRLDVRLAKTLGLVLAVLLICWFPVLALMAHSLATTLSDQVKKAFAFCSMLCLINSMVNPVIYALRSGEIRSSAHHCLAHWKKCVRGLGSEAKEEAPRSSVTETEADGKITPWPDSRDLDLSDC

SMILES	Ki [1] [nM]	Ki [2] [nM]	Ratio Ki [3]	also measured
COc1ccc(-c2cc(C)c(OC)c(C(=O)N[C@H]3CC[C@H](C)CC3)c2)cc1	> 10000	> 10000	–	–
CCCC(C)(C)c1ccc2c(c1)OC(C)(C)[C@@H]1CC=C(C)C[C@@H]21	–	–	226	–
COc1ccc(-c2cc(C)c(OC)c(C(=O)NC3CCCCCC3)c2)cc1	> 10000	> 10000	–	–
CCCCc1cc(-c2ccc(OC)cc2)cc(C(=O)NC2CCCCCC2)c1OC	11.5	1490	130	inhibition [4]: Dose-dependent effect; inhibition [5]: Dose-dependent effect; Activity [6]: inactive; Kb [7]: 794 nM; inhibition [8]: Active
COc1ccc(-c2cc(C)c(OC)c(C(=O)N[C@H]3CC[C@@H](C)CC3)c2)cc1	> 10000	> 10000	–	–
CCCCc1cc(-c2ccc(OC)cc2)cc(C(=O)N[C@H]2CC[C@H](C)CC2)c1OC	143	2290	16	Activity [6]: inactive; inhibition [8]: Active
COc1c(C)cc(-c2ccc(F)cc2)cc1C(=O)N[C@H]1CC[C@@H](C)CC1	60	180	3	Activity [9]: inactive; inhibition [10]: Active; EC50 [11]: 398 nM
COc1c(C)cc(-c2ccc(F)cc2)cc1C(=O)NC1CCCCCC1	60	160	2.67	Activity [9]: inactive; inhibition [10]: Active; EC50 [11]: 398 nM
COc1c(C)cc(-c2ccccc2)cc1C(=O)N[C@H]1CC[C@H](C)CC1	90	1530	17	–
COc1c(C)cc(-c2ccc(F)cc2)cc1C(=O)N[C@H]1CC[C@H](C)CC1	90	620	6.89	–
COc1c(C)cc(-c2ccccc2)cc1C(=O)NC1CCCCCC1	100	870	8.7	–
COc1c(C)cc(-c2ccccc2)cc1C(=O)N[C@H]1CC[C@@H](C)CC1	150	1090	7.27	–
CCCCc1cc(-c2ccc(OC)cc2)cc(C(=O)N[C@H]2CC[C@@H](C)CC2)c1OC	22	1550	70	Activity [6]: inactive; inhibition [8]: Active
